EPA's CvTdb concentration-time database

Experiments:
[1] = test system: rat; test: concentration in blood after dosing; conditions: dosed: trichloroethylene
[2] = test system: Rat; test: concentration in plasma after dosing; conditions: dosed: Perfluorooctane Sulfonate, 2 mg/kg, iv, Male, F344
[3] = test system: Rat; test: concentration in plasma after dosing; conditions: 864 h; dosed: Perfluorooctane Sulfonate; 2 mg/kg; oral; Female; Harlan Sprague Dawley
[4] = test system: Rat; test: concentration in liver after dosing; conditions: 6 h; dosed: Perfluorooctane Sulfonate; 2 mg/kg; oral; Female; Harlan Sprague Dawley
[5] = test system: Rat; test: concentration in brain after dosing; conditions: 24 h; dosed: Perfluorooctane Sulfonate; 2 mg/kg; oral; Female; Harlan Sprague Dawley
[6] = test system: Rat; test: concentration in liver after dosing; conditions: 1848 h; dosed: Perfluorooctane Sulfonate; 2 mg/kg; oral; Female; Harlan Sprague Dawley
[7] = test system: Rat; test: concentration in liver after dosing; conditions: 3360 h; dosed: Perfluorooctane Sulfonate; 2 mg/kg; oral; Female; Harlan Sprague Dawley
[8] = test system: Rat; test: concentration in plasma after dosing; conditions: dosed: Perfluorooctane Sulfonate, 2 mg/kg, iv, Female, Harlan Sprague-Dawley
[9] = test system: Rat; test: concentration in plasma after dosing; conditions: 24 h; dosed: Perfluorooctane Sulfonate; 2 mg/kg; oral; Female; Harlan Sprague Dawley
[10] = test system: Rat; test: concentration in kidney after dosing; conditions: 1848 h; dosed: Perfluorooctane Sulfonate; 20 mg/kg; oral; Male; Harlan Sprague Dawley
[11] = test system: Rat; test: concentration in kidney after dosing; conditions: 6 h; dosed: Perfluorooctane Sulfonate; 2 mg/kg; oral; Female; Harlan Sprague Dawley
[12] = test system: Rat; test: concentration in plasma after dosing; conditions: 18 h; dosed: Gemfibrozil; 50 mg/kg; oral; Male; Sprague-Dawley
[13] = test system: Rat; test: concentration in plasma after dosing; conditions: 10 h; dosed: Gemfibrozil; 50 mg/kg; oral; Male; Sprague-Dawley
[14] = test system: Rat; test: concentration in plasma after dosing; conditions: 18 h; dosed: Gemfibrozil; 100 mg/kg; oral; Male; Sprague-Dawley

`ClC=C(Cl)Cl` [trichloroethylene] gave a concentration in blood ([1]; 110 s, 50 ppm, inhalation, duration: 2 hr, male, Sprague Dawley) of 206 ng/mL, a concentration in blood ([1]; 125 s, 7.6 mg/kg, oral, female, F344) of 1770 ng/mL and a concentration in blood ([1]; 143 s, 18 mg/kg, oral, male, Wistar) of 11100 ng/mL. It also gave a concentration in blood ([1]; 219 s, 50 ppm, inhalation, duration: 2 hr, male, Sprague Dawley) of 267 ng/mL, a concentration in blood ([1]; 266 s, 18 mg/kg, oral, male, Wistar) of 13600 ng/mL and a concentration in blood ([1]; 296 s, 7.6 mg/kg, oral, female, F344) of 2100 ng/mL. It also gave a concentration in blood ([1]; 350 s, 50 ppm, inhalation, duration: 2 hr, male, Sprague Dawley) of 337 ng/mL, a concentration in blood ([1]; 355 s, 18 mg/kg, oral, male, Wistar) of 13000 ng/mL and a concentration in blood ([1]; 0.1294 h, 600.4 ppm, inhalation, duration: 4 hr, female, Fischer-344) of 21900 ng/mL. It also gave a concentration in blood ([1]; 0.1299 h, 50 ppm, inhalation, duration: 2 hr, male, Sprague Dawley) of 443 ng/mL, a concentration in blood ([1]; 0.1447 h, 18 mg/kg, oral, male, Wistar) of 10200 ng/mL and a concentration in blood ([1]; 0.1617 h, 50 ppm, inhalation, duration: 2 hr, male, Sprague Dawley) of 402 ng/mL. For the same compound, the concentration in blood ([1]; 0.1716 h, 7.6 mg/kg, oral, female, F344) was 1400 ng/mL, the concentration in blood ([1]; 0.1747 h, 18 mg/kg, oral, male, Wistar) was 7730 ng/mL and the concentration in blood ([1]; 0.2208 h, 18 mg/kg, oral, male, Wistar) was 5020 ng/mL. The concentration in blood ([1]; 0.2483 h, 50 ppm, inhalation, duration: 2 hr, male, Sprague Dawley) was 454 ng/mL, the concentration in blood ([1]; 0.2739 h, 18 mg/kg, oral, male, Wistar) was 3760 ng/mL and the concentration in blood ([1]; 0.3228 h, 18 mg/kg, oral, male, Wistar) was 2790 ng/mL. It also gave a concentration in blood ([1]; 0.3289 h, 50 ppm, inhalation, duration: 2 hr, male, Sprague Dawley) of 492 ng/mL, a concentration in blood ([1]; 0.3309 h, 7.6 mg/kg, oral, female, F344) of 494 ng/mL and a concentration in blood ([1]; 0.3794 h, 18 mg/kg, oral, male, Wistar) of 2110 ng/mL. For the same compound, the concentration in blood ([1]; 0.4153 h, 50 ppm, inhalation, duration: 2 hr, male, Sprague Dawley) was 352 ng/mL, the concentration in blood ([1]; 0.4319 h, 18 mg/kg, oral, male, Wistar) was 1710 ng/mL and the concentration in blood ([1]; 0.4974 h, 50 ppm, inhalation, duration: 2 hr, male, Sprague Dawley) was 493 ng/mL. It also gave a concentration in blood ([1]; 0.5005 h, 7.6 mg/kg, oral, female, F344) of 296 ng/mL, a concentration in blood ([1]; 0.5081 h, 600.4 ppm, inhalation, duration: 4 hr, female, Fischer-344) of 15900 ng/mL and a concentration in blood ([1]; 0.5204 h, 18 mg/kg, oral, male, Wistar) of 1350 ng/mL. The concentration in blood ([1]; 0.7511 h, 50 ppm, inhalation, duration: 2 hr, male, Sprague Dawley) was 433 ng/mL, the concentration in blood ([1]; 0.7693 h, 18 mg/kg, oral, male, Wistar) was 957 ng/mL and the concentration in blood ([1]; 1.002 h, 50 ppm, inhalation, duration: 2 hr, male, Sprague Dawley) was 555 ng/mL. The concentration in blood ([1]; 1.014 h, 18 mg/kg, oral, male, Wistar) was 768 ng/mL, the concentration in blood ([1]; 1.016 h, 600.4 ppm, inhalation, duration: 4 hr, female, Fischer-344) was 9420 ng/mL and the concentration in blood ([1]; 1.252 h, 50 ppm, inhalation, duration: 2 hr, male, Sprague Dawley) was 512 ng/mL. The concentration in blood ([1]; 1.512 h, 18 mg/kg, oral, male, Wistar) was 503 ng/mL, the concentration in blood ([1]; 1.531 h, 600.4 ppm, inhalation, duration: 4 hr, female, Fischer-344) was 5750 ng/mL and the concentration in blood ([1]; 2.017 h, 18 mg/kg, oral, male, Wistar) was 333 ng/mL. It also gave a concentration in blood ([1]; 2.018 h, 600.4 ppm, inhalation, duration: 4 hr, female, Fischer-344) of 4750 ng/mL, a concentration in blood ([1]; 2.518 h, 18 mg/kg, oral, male, Wistar) of 321 ng/mL and a concentration in blood ([1]; 3.02 h, 18 mg/kg, oral, male, Wistar) of 214 ng/mL. It also gave a concentration in blood ([1]; 3.529 h, 18 mg/kg, oral, male, Wistar) of 59.6 ng/mL and a concentration in blood ([1]; 4.027 h, 18 mg/kg, oral, male, Wistar) of 47.7 ng/mL.

Work on `O=S(=O)([O-])C(F)(F)C(F)(F)C(F)(F)C(F)(F)C(F)(F)C(F)(F)C(F)(F)C(F)(F)F` [Perfluorooctane Sulfonate] yielded a concentration in plasma ([2]; 12 h) of 5170 ng/mL, a concentration in plasma ([2]; 1200 h) of 1700 ng/mL and a concentration in plasma [3] of 1490 ng/mL. The concentration in liver [4] was 27200 ng/g, the concentration in brain [5] was 757 ng/g and the concentration in liver [6] was 9070 ng/g. It also gave a concentration in liver [7] of 9920 ng/g, a concentration in plasma ([8]; 1 h) of 4460 ng/mL and a concentration in plasma ([8]; 192 h) of 2800 ng/mL. The concentration in plasma ([8]; 1704 h) was 848 ng/mL, the concentration in plasma [9] was 5650 ng/mL and the concentration in kidney [10] was 25300 ng/g. The concentration in kidney [11] was 9250 ng/g.

`Cc1ccc(C)c(OCCCC(C)(C)C(=O)O)c1` [Gemfibrozil] was tested, and the concentration in plasma [12] was 1510 ng/mL, the concentration in plasma [13] was 1930 ng/mL and the concentration in plasma [14] was 3080 ng/mL.
